In patent publication US20240025899A1, “TRIHETEROCYCLIC DERIVATIVE, AND PHARMACEUTICAL COMPOSITION AND APPLICATION THEREOF” (SHANGHAI DE NOVO PHARMATECH CO., LTD., priority 2020, published 2024):
pIC50: −log10 of the molar value. Where a name gives a salt, the structure may show the parent alone. Read-outs that look alike come from different tables or passages of the source.

How the values were obtained:
CYP2D6 = CYP2D6 (Homo sapiens (Human), UniProt P10635); test: Cytochrome oxidase P450 inhibition study, CYP2D6; type: in vitro ADME; conditions: human liver microsomes; read-out: IC50 2D6
Chain of CYP2D6 (P10635 whole entry): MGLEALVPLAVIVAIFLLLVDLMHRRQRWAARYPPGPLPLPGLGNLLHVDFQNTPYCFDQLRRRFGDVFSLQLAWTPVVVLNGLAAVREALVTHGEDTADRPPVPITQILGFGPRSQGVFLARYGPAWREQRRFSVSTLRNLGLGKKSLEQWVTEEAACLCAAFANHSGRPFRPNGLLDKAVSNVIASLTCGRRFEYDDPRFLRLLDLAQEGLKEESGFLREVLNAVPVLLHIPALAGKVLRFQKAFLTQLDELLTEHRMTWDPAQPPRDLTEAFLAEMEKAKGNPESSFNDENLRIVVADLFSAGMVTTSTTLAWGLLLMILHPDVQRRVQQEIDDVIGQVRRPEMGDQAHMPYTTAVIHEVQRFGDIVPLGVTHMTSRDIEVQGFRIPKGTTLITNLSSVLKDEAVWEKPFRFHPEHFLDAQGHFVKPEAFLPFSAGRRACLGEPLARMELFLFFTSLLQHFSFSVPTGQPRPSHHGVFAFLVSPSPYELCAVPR
Description: (§1) LC-MS/MS methods were used to evaluate the inhibitory effects of compounds on CYP2C19, 2D6 and 3A4 subtypes. In this method, the test compound was mixed with a solution of human liver microsomes containing CYP model substrates, and incubated together under the addition of NADPH, then the inhibitory IC50 of the compound on CYP2C19, 2D6 and 3A4 was calculated by measuring the amount of metabolites of the model substrate in the reaction solution. The specific experimental method is as follows:
Compounds to be tested were prepared as stock solutions at 10 mM concentration with DMSO and then diluted to 4 mM with acetonitrile solution. At the same time, the corresponding reference inhibitor solutions for CYP subtypes were prepared, for example, the reference inhibitor was Ketoconazole, then these two compounds were prepared separately ([…] of inhibitor DMSO stock solution+[…] of acetonitrile), and the samples prepared under the above conditions were at 400× concentration. Then, the above solution was 3-fold diluted with DMSO/acetonitrile mixture (v/v: 40/60) to prepare the final test solution, and seven concentration points were set for each test compound, and the initial test final concentration was 10 μM. […]
[…] of human liver microsome solution (0.2 mg/mL) was added to each well containing the test compound in the 96-well plate, and then 2 mL of the final test sample of test compounds prepared by serial dilution as described above was added thereto; for each well corresponding to the reference inhibitors, […] of human liver microsome solution (0.2 mg/mL) and 1 mL of the final test sample were added. […] The inhibition rate was determined by comparing the amount of model substrate metabolites at each test concentration without test substance addition, in the GraphPad Prism 5.0 software, the logarithm of the test concentration was used as the abscissa and the inhibition rate was used as the ordinate to perform a linear regression (Sigmoidal (non-linear) dose-response model) analysis to obtain the IC50 value of the test compound.

ATR/ATRIP kinase = ATR/ATRIP kinase (Homo sapiens (Human), UniProt Q13535); test: ATR enzyme assay (HTRF, phosphorylation of substrate protein P53); type: biochemical; conditions: substrate P53, TR-FRET
Chain of ATR/ATRIP kinase (Q13535 whole entry): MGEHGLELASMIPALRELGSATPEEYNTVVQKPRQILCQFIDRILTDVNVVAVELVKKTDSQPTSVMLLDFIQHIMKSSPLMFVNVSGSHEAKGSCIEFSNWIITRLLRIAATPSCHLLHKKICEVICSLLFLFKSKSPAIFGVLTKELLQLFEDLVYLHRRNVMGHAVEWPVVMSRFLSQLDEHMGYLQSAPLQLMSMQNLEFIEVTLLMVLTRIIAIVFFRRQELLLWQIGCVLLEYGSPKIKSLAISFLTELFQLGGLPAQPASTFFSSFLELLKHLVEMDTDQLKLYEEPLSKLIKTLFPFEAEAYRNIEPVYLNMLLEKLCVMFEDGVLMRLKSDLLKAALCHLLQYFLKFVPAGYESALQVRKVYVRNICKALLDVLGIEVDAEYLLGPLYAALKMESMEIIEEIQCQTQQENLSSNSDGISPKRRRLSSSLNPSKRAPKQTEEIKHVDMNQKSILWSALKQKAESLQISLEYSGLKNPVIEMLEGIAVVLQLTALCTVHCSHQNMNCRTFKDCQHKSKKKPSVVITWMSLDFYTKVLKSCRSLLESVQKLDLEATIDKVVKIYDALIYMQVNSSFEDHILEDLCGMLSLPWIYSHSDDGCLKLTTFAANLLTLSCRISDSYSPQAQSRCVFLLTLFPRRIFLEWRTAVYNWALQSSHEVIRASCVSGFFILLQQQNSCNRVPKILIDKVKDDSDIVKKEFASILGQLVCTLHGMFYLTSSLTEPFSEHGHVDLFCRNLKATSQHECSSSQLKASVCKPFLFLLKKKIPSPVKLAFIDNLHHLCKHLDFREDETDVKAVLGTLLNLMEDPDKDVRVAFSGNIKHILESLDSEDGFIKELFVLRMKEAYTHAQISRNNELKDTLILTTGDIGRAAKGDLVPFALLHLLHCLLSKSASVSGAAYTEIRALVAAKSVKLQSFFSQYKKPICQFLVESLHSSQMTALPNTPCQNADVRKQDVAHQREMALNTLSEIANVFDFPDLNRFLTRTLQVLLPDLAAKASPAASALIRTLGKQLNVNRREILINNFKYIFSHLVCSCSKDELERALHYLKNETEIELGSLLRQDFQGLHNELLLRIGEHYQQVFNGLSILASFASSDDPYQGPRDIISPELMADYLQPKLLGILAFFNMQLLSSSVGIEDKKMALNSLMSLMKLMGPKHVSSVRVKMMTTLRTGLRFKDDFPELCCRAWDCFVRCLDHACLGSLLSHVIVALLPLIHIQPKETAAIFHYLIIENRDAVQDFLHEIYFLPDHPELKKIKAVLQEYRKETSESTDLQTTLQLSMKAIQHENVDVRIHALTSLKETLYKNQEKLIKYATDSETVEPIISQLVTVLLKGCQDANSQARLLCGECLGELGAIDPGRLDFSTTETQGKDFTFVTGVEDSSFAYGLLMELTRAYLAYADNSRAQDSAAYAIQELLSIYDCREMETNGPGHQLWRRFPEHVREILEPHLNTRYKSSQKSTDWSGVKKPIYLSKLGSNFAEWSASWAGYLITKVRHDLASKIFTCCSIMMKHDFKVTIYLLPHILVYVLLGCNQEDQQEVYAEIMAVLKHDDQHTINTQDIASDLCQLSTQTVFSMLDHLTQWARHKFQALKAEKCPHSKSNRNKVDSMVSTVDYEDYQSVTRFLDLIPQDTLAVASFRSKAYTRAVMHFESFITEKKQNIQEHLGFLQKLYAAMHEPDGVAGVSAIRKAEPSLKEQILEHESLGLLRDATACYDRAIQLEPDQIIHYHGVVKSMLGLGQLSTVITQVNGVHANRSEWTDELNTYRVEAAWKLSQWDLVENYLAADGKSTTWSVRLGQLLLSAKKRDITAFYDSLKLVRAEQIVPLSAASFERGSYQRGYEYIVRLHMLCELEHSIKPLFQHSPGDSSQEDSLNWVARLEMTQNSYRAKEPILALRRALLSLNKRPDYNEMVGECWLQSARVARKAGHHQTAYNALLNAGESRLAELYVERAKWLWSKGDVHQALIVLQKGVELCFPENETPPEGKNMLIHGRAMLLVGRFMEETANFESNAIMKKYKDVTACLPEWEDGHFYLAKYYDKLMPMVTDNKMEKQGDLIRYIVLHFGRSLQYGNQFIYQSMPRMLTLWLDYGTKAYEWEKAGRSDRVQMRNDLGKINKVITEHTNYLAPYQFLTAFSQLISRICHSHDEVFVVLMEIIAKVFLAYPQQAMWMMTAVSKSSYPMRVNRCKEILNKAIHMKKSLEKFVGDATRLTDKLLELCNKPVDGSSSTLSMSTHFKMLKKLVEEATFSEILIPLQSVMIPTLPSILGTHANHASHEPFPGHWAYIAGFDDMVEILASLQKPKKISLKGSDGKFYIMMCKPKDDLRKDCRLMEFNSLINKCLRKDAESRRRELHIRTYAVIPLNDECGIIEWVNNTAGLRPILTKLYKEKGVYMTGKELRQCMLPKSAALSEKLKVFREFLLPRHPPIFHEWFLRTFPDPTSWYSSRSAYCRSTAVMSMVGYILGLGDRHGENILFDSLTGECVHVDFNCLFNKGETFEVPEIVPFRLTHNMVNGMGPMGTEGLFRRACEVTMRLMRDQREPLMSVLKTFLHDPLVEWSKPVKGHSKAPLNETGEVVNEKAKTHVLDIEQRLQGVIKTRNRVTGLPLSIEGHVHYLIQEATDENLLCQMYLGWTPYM
Chain of ATR/ATRIP kinase (Q8WXE1 whole entry partner): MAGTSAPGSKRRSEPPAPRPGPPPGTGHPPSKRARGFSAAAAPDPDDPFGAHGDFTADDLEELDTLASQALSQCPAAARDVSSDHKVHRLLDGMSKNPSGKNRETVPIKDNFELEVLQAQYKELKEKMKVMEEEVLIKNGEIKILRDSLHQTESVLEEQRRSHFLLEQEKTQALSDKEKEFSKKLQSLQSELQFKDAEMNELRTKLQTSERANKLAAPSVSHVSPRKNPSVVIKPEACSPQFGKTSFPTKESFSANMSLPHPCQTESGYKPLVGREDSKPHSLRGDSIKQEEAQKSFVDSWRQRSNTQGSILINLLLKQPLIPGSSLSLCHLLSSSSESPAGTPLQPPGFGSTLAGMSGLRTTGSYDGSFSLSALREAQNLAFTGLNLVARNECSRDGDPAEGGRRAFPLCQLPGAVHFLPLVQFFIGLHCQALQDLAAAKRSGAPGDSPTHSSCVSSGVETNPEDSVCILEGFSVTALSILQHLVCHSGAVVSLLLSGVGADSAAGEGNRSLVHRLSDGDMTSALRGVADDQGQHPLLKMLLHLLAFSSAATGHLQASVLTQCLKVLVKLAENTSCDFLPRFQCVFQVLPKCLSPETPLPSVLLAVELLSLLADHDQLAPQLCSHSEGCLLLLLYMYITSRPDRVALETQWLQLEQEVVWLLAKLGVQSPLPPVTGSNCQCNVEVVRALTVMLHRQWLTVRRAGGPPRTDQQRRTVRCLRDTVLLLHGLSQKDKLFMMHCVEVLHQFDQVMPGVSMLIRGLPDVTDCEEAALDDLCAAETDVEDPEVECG
Description: In this experiment, the phosphorylation level of substrate protein P53 (Eurofins, 14-952) was detected by HTRF technology to measure the activity of ATR/ATRIP (Eurofins, 14-953) kinase. Reaction buffer (25 mM HEPES pH 8.0, 0.01% Brij-35, 1% Glycerol, 5 mM DTT, 1 mg/mL BSA), termination buffer (12.5 mM HEPES pH 8.0, 0.005% Brij-35, 0.5% Glycerol, 250 mM EDTA) and assay buffer (50 mM HEPES pH 7.0, 150 mM NaCl, 267 mM KF, 0.1% sodium cholate, 0.01% Tween 20) were prepared in advance. ATR/ATRIP was diluted with reaction buffer to a working solution of 2 ng/μL, and the substrate protein P53 was diluted with reaction buffer to a working solution of 80 nM, and 4 nM of ATP (Sigma, A2383) working solution (containing 40 mM MnCl2) was prepared with reaction buffer. The compound was 3-fold diluted with DMSO, then diluted with reaction buffer into a working solution, then added to a 384-well plate at 2.5 μL/well, and centrifuged at 1500 rpm for 40 s. Then 2.5 μL of ATR/ATRIP working solution, P53 working solution and ATP working solution were added into the 384-well plate, centrifuged at 1500 rpm for 40 s and reacted at room temperature for 30 minutes. After the reaction was completed, 5 μL of termination buffer was added to each well, and centrifuged at 1500 rpm for 40 s. Antibody working solution containing 0.083 μg/mL anti-phospho-p53 (Ser15)-K (CisBio, cat. 61P08KAE) and 5 μg/mL anti-GST-d2 (CisBio, cat. 61GSTDLA) was prepared with assay buffer and added to the 384-well plate at 5 μL/well, then centrifuged at 1500 rpm for 40 s and reacted overnight at room temperature. Microplate reader (Tecan, Infinite M1000 Pro) was used to detect TR-FRET, and the data were analyzed with Graphpad software, and the four-parameter equation was used to fit the curve and calculate the IC50 value of the inhibitor (Table 1).

CYP3A4 = CYP3A4 (Homo sapiens (Human), UniProt P08684); test: Cytochrome oxidase P450 inhibition study, CYP3A4; type: in vitro ADME; conditions: human liver microsomes
Chain of CYP3A4 (P08684 whole entry): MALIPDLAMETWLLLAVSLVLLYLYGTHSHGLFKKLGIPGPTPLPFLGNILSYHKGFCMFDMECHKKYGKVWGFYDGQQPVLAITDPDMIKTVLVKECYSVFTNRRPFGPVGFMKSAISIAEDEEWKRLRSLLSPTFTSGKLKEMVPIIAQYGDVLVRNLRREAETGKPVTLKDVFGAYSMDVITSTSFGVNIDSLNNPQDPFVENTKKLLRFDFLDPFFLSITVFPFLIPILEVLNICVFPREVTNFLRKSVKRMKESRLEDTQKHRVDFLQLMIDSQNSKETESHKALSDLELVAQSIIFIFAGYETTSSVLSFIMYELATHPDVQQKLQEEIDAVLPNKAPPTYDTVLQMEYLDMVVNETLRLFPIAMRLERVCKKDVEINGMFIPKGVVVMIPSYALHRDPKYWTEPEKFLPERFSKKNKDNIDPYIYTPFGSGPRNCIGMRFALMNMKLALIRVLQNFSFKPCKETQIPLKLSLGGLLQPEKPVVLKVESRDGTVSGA
Description: as §1
Compounds to be tested were prepared as stock solutions at 10 mM concentration with DMSO and then diluted to 4 mM with acetonitrile solution. At the same time, the corresponding reference inhibitor solutions for CYP subtypes were prepared, for example, the reference inhibitor was Ketoconazole, then these two compounds were prepared separately ([…] of inhibitor DMSO stock solution+[…] of acetonitrile), and the samples prepared under the above conditions were at 400× concentration. Then, the above solution was 3-fold diluted with DMSO/acetonitrile mixture (v/v: 40/60) to prepare the final test solution, and seven concentration points were set for each test compound, and the initial test final concentration was 10 μM. NADPH, CYP enzyme model substrate and human liver microsome solution were diluted to appropriate concentrations with pre-warmed potassium phosphate buffer (0.1 M, pH 7.4), respectively. The human liver microsome solution was purchased from BD Gentest (20 mg/mL, Corning, article number #452161).
[…] of human liver microsome solution (0.2 mg/mL) was added to each well containing the test compound in the 96-well plate, and then 2 mL of the final test sample of test compounds prepared by serial dilution as described above was added thereto; for each well corresponding to the reference inhibitors, […] of human liver microsome solution (0.2 mg/mL) and 1 mL of the final test sample were added. […] of the prepared corresponding model substrate was dispensed into a 96-well plate, and the microsome solution was mixed evenly, then 30 mL of the test compound/reference inhibitor-human liver microsome mixture was taken and transferred to the 96-well plate containing the substrate, and the mixture was mixed well and preheated at 37° C. for 5 minutes, then […] of 8 mM NADPH solution preheated at 37° C. was added thereto to start the reaction. A duplicate well control and a blank control without the addition of test substances were set at the same time. The 96-well plate containing a total volume of […] of reaction solution was incubated at 37° C. After the incubation, 120 μL of cold acetonitrile solution containing internal standard was added to each well to terminate the reaction, and then the 96-well plate was shaked on a microplate shaker for 5 minutes (600 rpm/min), and put into a centrifuge and centrifuged for 20 minutes at 6000 rpm, 4° C. Then 40 μL of supernatant from each well was transferred to another 96-well plate, and 80 μL of ultrapure water was added to each well, put into a shaker and mixed for 5 minutes (600 rpm/min), and centrifuged at 6000 rpm, 4° C., for 20 minutes. Then LC-MS/MS detection was performed. The inhibition rate was determined by comparing the amount of model substrate metabolites at each test concentration without test substance addition, in the GraphPad Prism 5.0 software, the logarithm of the test concentration was used as the abscissa and the inhibition rate was used as the ordinate to perform a linear regression (Sigmoidal (non-linear) dose-response model) analysis to obtain the IC50 value of the test compound.

[1] = substrate Midazolam, read-out: IC50 3A4 (Midazolam)
[2] = substrate Testosterone, read-out: IC50 3A4 (Testosterone)

Row | Structure (SMILES) | pIC50 (CYP2D6) | pIC50 (ATR/ATRIP kinase) | pIC50 (CYP3A4; [1]) | pIC50 (CYP3A4; [2])
1 | C[C@@H]1COCCN1c1nc2c(cnn2-c2cc[nH]n2)c2c1CCN2S(C)(=O)=O [Compound 2, (R)-3-methyl-4-(1-(methylsulfonyl)-6-(1H-pyrazol-3-yl)-1,2,3,6-tetrahydropyrazolo[3,4-b]pyrrolo[2,3-d]pyridin-4-yl)morpholine trifluoroacetate] | < 5.00 | 9.16 | < 5.00 | < 5.00
2 | C[C@@H]1COCCN1c1nc2c(cnn2-c2cc[nH]n2)c2c1ccn2S(C)(=O)=O [Compound 1, (R)-3-methyl-4-(1-(methylsulfonyl)-6-(1H-pyrazol-3-yl)-1,6-dihydropyrazolo[3,4-b]pyrrolo[2,3-d]pyridin-4-yl)morpholine trifluoroacetate] | < 5.00 | 8.92 | < 5.00 | < 5.00
